From patent US8871767B2, “2-arylimidazo[1,2-B]pyridazine, 2-phenylimidazo[1,2-A]pyridine, and 2-phenylimidazo[1,2-A]pyrazine derivatives” (Hengrui (USA) Ltd., priority 2010, dated 2014)
Read-outs that look alike come from different tables or passages of the source.

Legend:
[1] = tested on: Hedgehog pathway activation on 10T1/2/Smo#3 cells (C3H10T1/2 cells transfected with human Smoothened receptor); experiment: Hedgehog pathway activation on 10T1/2/Smo#3 cells measured by ALP activity; assay type: cell-based; settings: Mus musculus, C3H 10T1/2, 10T1/2/Smo#3 cells
Outline: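 C3H10T1/2 cells stably expressing human Smoothened were activated with hShh-conditioned medium (10-20%) or 500 nM SAG, with test compounds present. Pathway block read as inhibited ALP activity (4-methylumbelliferyl phosphate fluorescence); viability checked by CellTiter-Blue. IC50 values reported.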

[2] = tested on: Hedgehog pathway activation (GLi-luciferase reporter) in Shh Light II reporter cells; experiment: Hedgehog pathway activation on Shh Light II reporter cells measured by luciferase activity; assay type: cell-based; settings: Mus musculus, Shh Light II
Outline: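 Shh Light II reporter cells carrying a hedgehog-responsive GLi-luciferase reporter were stimulated either with 500 nM SAG, a direct Smoothened agonist, or with conditioned media containing human Sonic Hedgehog (hShh). Test compounds were evaluated for blocking this pathway activation, quantified by luciferase activity. Cell viability was monitored in parallel with the Celltiter-Blue® assay.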

[3] = measured by ALP activity, read-out: ALP (IC50, inhibition of Hedgehog pathway activation)
[4] = hShh activation, read-out: Shh (IC50, inhibition of Hedgehog pathway activation)
[5] = hShh activation, ALP activity, read-out: 10T1/2/Smo#3 ALP activity (hShh Activation)
[6] = SAG activation (500 nM SAG), read-out: Shh Light II luciferase activity (SAG activation)
[7] = hShh activation, read-out: Shh Light II luciferase activity (hShh activation)

| Compound | IC50 [1, 3] | IC50 [2, 4] | IC50 [1, 5] | IC50 [2, 6] | IC50 [2, 7] |
| --- | --- | --- | --- | --- | --- |
| Cc1ccc(-c2cn3nc(-c4cccc(S(=O)(=O)N(C)C)c4)ccc3n2)cc1NC(=O)C(C)(C)C [Example 451, N-(5-(6-(3-(N,N-dimethylsulfamoyl)phenyl)imidazo[1,2-b]pyridazin-2-yl)-2-methylphenyl)pivalamide] | 1000 nM | 960 nM |  |  |  |
| COC(=O)C=Cc1ccc(Cl)c(-c2ccc3nc(-c4ccc(C)c(NC(=O)C(C)(C)C)c4)cn3n2)c1 [compound 573] | 1040 nM | 70 nM |  |  |  |
| CC(C)(C)C(=O)Nc1cc(-c2cn3nc(-c4cccnc4Cl)ccc3n2)ccc1C(F)(F)F [Example 334, N-(5-(6-(2-chloropyridin-3-yl)imidazo[1,2-b]pyridazin-2-yl)-2-(trifluoromethyl)phenyl)pivalamide] | 213 nM | 278 nM |  |  |  |
| Cc1ccc(-c2cn3nc(N4CCC(O)CC4)ccc3n2)cc1NC(=O)C(C)(C)C [Example 286, N-(5-(6-(4-hydroxypiperidin-1-yl)imidazo[1,2-b]pyridazin-2-yl)-2-methylphenyl)pivalamide] | 127 nM | 193 nM |  |  |  |
| Cc1ccc(-c2cn3nc(N4CCC(C#N)CC4)ccc3n2)cc1NC(=O)C(C)(C)C [compound 544] | 462 nM | 224 nM |  |  |  |
| Cc1ccc(-c2ccc3nc(-c4ccc(C(F)(F)F)c(NC(=O)C(C)(C)C)c4)cn3n2)c(F)c1 [Example 205, N-(5-(6-(2-fluoro-4-methylphenyl)imidazo[1,2-b]pyridazin-2-yl)-2-(trifluoromethyl)phenyl)pivalamide] | 196 nM | 279 nM |  |  |  |
| CC(C)(C)C(=O)Nc1cc(-c2cn3nc(N4CCC(N5CCOCC5)CC4)ccc3n2)ccc1C(F)(F)F [Example 369, N-(5-(6-(4-morpholinopiperidin-1-yl)imidazo[1,2-b]pyridazin-2-yl)-2-(trifluoromethyl)phenyl)pivalamide] | 363 nM | 713 nM | 300 to 3000 nM | 300 to 3000 nM | 300 to 3000 nM |
| COc1ccc2nc(-c3cc(NC(=O)CC(C)(C)C)ccc3Cl)cn2n1 [Example 117, N-(4-chloro-3-(6-methoxyimidazo[1,2-b]pyridazin-2-yl)phenyl)-3,3-dimethylbutanamide] | 6740 nM | 2800 nM | 3000 to 30000 nM | 3000 to 30000 nM | 3000 to 30000 nM |
| Cc1ccc(-c2cn3nc(-c4ccc(C#N)cc4Cl)ccc3n2)cc1NC(=O)C(C)(C)C [compound 564] | 60 nM | 20 nM |  |  |  |
| Cc1c(-c2ccccc2)nc2ccc(N3CCN(Cc4ccc(OC(F)(F)F)cc4)CC3)nn12 [Example 166, 3-methyl-2-phenyl-6-(4-(4-(trifluoromethoxy)benzyl)piperazin-1-yl)imidazo[1,2-b]pyridazine] | 1970 nM | 995 nM |  |  |  |
| CC(CC(=O)Nc1cc(-c2cn3nc(-c4cccnc4C(F)(F)F)ccc3n2)c(F)cc1Cl)C(F)(F)F (stereo not drawn) [Example 661, N-(2-chloro-4-fluoro-5-(6-(2-(trifluoromethyl)pyridin-3-yl)imidazo[1,2-b]pyridazin-2-yl)phenyl)-4,4,4-trifluoro-3-methylbutanamide] | 15 nM | 31 nM |  |  |  |
| CC(C)(C)C(=O)Nc1cc(-c2cn3nc(-c4ccc[nH]4)ccc3n2)ccc1C(F)(F)F [Example 179, N-(5-(6-(1H-pyrrol-2-yl)imidazo[1,2-b]pyridazin-2-yl)-2-(trifluoromethyl)phenyl)pivalamide] | 1440 nM | 454 nM |  |  |  |
| CC(C)(C)C(=O)Nc1cc(-c2cn3nc(N4CC[C@@H](O)C4)ccc3n2)ccc1Cl [Example 643, (R)—N-(2-chloro-5-(6-(3-hydroxypyrrolidin-1-yl)imidazo[1,2-b]pyridazin-2-yl)phenyl)pivalamide] | 23 nM | 146 nM |  |  |  |
| CC1(C(=O)Nc2cc(-c3cn4nc(-c5cccnc5C(F)(F)F)ccc4n3)ccc2F)CC1 [Example 674, N-(2-fluoro-5-(6-(2-(trifluoromethyl)pyridin-3-yl)imidazo[1,2-b]pyridazin-2-yl)phenyl)-1-methylcyclopropanecarboxamide] | 140 nM | 59 nM |  |  |  |
| CCOc1ccc2nc(-c3ccc(C(F)(F)F)c(S(=O)(=O)NCc4ccc(F)cc4)c3)cn2n1 [Example 213, 5-(6-ethoxyimidazo[1,2-b]pyridazin-2-yl)-N-(4-fluorobenzyl)-2-(trifluoromethyl)benzenesulfonamide] | 3860 nM | > 10000 nM |  |  |  |
| CCOC(=O)CCCCCOc1cccc(-c2ccc3nc(-c4ccc(C)c(NC(=O)C(C)(C)C)c4)cn3n2)c1C(F)(F)F [Example 422, ethyl 6-(3-(2-(4-methyl-3-pivalamidophenyl)imidazo[1,2-b]pyridazin-6-yl)-2-(trifluoromethyl)phenoxy)hexanoate] | 312 nM | 869 nM |  |  |  |
| Cc1ccc(-c2cn3nc(-c4ccc(-c5ccc(Cl)nc5)nc4)ccc3n2)cc1NC(=O)C(C)(C)C [Example 401, N-(5-(6-(6′-chloro-2,3′-bipyridin-5-yl)imidazo[1,2-b]pyridazin-2-yl)-2-methylphenyl)pivalamide] | 234 nM | 400 nM |  |  |  |
| COc1ccc2nc(-c3ccc(C)c(NC(=O)c4ccc(F)cc4Cl)c3)cn2n1 [Example 98, 2-chloro-4-fluoro-N-(5-(6-methoxyimidazo[1,2-b]pyridazin-2-yl)-2-methylphenyl)benzamide] | 2040 nM | 1340 nM |  |  |  |
| COc1ccccc1Oc1ccc2nc(-c3ccc(C(F)(F)F)c(NC(=O)C(C)(C)C)c3)cn2n1 [Example 197, N-(5-(6-(2-methoxyphenoxy)imidazo[1,2-b]pyridazin-2-yl)-2-(trifluoromethyl)phenyl)pivalamide] | 875 nM | 357 nM |  |  |  |
| Cc1cc(C)c(-c2cn3ncccc3n2)cc1NC(=O)C(C)(C)C [Example 107, N-(5-(imidazo[1,2-b]pyridazin-2-yl)-2,4-dimethylphenyl)pivalamide] | 7270 nM | 2770 nM |  |  |  |
| Cc1ccc(-c2cn3nc(N4CCOCC4)ccc3n2)cc1NC(=O)C(C)(C)C [Example 128, N-(2-methyl-5-(6-morpholinoimidazo[1,2-b]pyridazin-2-yl)phenyl)pivalamide] | 422 nM | > 10000 nM | 300 to 3000 nM | 3000 to 30000 nM | 3000 to 30000 nM |
| CC(C)(C)C(=O)Nc1cc(-c2cn3nc(N4CC[C@@H](O)C4)ccc3n2)ccc1C(F)(F)F [Example 341, (R)-N-(5-(6-(3-hydroxypyrrolidin-1-yl)imidazo[1,2-b]pyridazin-2-yl)-2-(trifluoromethyl)phenyl)pivalamide] | 109 nM | 123 nM |  |  |  |
| Cc1ccccc1-c1ccc2nc(-c3ccc(C(F)(F)F)c(NC(=O)C(C)(C)C)c3)cn2n1 [Example 241, N-(5-(6-o-tolylimidazo[1,2-b]pyridazin-2-yl)-2-(trifluoromethyl)phenyl)pivalamide] | 96 nM | 208 nM |  |  |  |
| CC(C)(C)C(=O)Nc1cc(-c2cn3nc(-c4nccs4)ccc3n2)ccc1C(F)(F)F [Example 148, N-(5-(6-(thiazol-2-yl)imidazo[1,2-b]pyridazin-2-yl)-2-(trifluoromethyl)phenyl)pivalamide] | 1940 nM | 608 nM | 300 to 3000 nM | 300 to 3000 nM | 300 to 3000 nM |
| CCCCSc1ccc2nc(-c3ccc(C)c(NC(=O)C(C)(C)C)c3)cn2n1 [Example 124, N-(5-(6-(butylthio)imidazo[1,2-b]pyridazin-2-yl)-2-methylphenyl)pivalamide] | 604 nM | 895 nM | 300 to 3000 nM | 300 to 3000 nM | 300 to 3000 nM |
| Cc1ccc(-c2cn3nc(-c4cccnc4C(F)(F)F)ccc3n2)cc1NC(=O)c1cccc(C=CC(=O)Nc2ccccc2N)c1 [compound 623, 3-(3-((2-aminophenyl)amino)-3-oxoprop-1-en-1-yl)-N-(2-methyl-5-(6-(2-(trifluoromethyl)pyridin-3-yl)imidazo[1,2-b]pyridazin-2-yl)phenyl)benzamide] | 145 nM | 198 nM | < 300 nM | 300 to 3000 nM | < 300 nM |
| Cc1c(-c2ccccc2)nc2ccc(N3CCN(C(=O)OC(C)(C)C)CC3)nn12 [Example 158, tert-butyl 4-(3-methyl-2-phenylimidazo[1,2-b]pyridazin-6-yl)piperazine-1-carboxylate] | 7340 nM | 847 nM | 3000 to 30000 nM | 300 to 3000 nM | 3000 to 30000 nM |
| CC(C)(C)C(=O)Nc1cc(-c2cn3nc(-c4ccc(F)cc4)ccc3n2)ccc1C(F)(F)F [Example 143, N-(5-(6-(4-fluorophenyl)imidazo[1,2-b]pyridazin-2-yl)-2-(trifluoromethyl)phenyl)pivalamide] | 2690 nM | 466 nM |  |  |  |
| Cc1ccc(-c2cn3nc(-c4ccc(S(N)(=O)=O)cc4C(F)(F)F)ccc3n2)cc1NC(=O)C(C)(C)C [compound 535] | 139 nM | 56 nM |  |  |  |
| CC(C)OC(=O)Nc1cc(-c2cn3nc(-c4cccnc4C(F)(F)F)ccc3n2)ccc1Cl [Example 668, isopropyl 2-chloro-5-(6-(2-(trifluoromethyl)pyridin-3-yl)imidazo[1,2-b]pyridazin-2-yl)phenylcarbamate] | 631 nM | 283 nM |  |  |  |
